Results: PMC9694488, “Amyloid beta and its naturally occurring N-terminal variants are potent activators of human and mouse formyl peptide receptor 1” (The Journal of Biological Chemistry, 2022)
“Also recorded” adds a separate entry of the source.

Columns and labels:
hFPR1, hFPR2, hFPR3 = test: Ca2+ imaging, human FPRs taken together; format: cell-based; details: transfected HEK293T
hFPR2 = test: Ca2+ imaging, HEK293T transiently transfected with hFPR2; format: cell-based, human; details: n = 3, N = 1; for threshold for minimal detectable activation, hFPR2: Ca2+ imaging, transfected HEK293T + Gα16, Calbryte 520, C1 buffer pH 7.2; for hFPR2 response concentration: concentration response curves
Description: (§1) All peptides were thawed at room temperature approximately 1 h before each functional experiment, as this time was needed to prepare the compound plates for each measurement.
(§2) HEK293T cells (ATCC) were cultured in Dulbecco’s Modified Eagle’s medium (DMEM, Biowest) supplemented with 10% (v/v) heat-inactivated fetal calf serum (FCS, Pan Biotech), 1 unit/ml penicillin-streptomycin (Biowest), and 2 mM L-glutamine (Biowest) until 80% confluence. For transfection, approximately 2000 cells were seeded in each well of poly-D-lysine–coated (PDL) (10 μg/ml in PBS, Sigma) black optical 96-well μCLEAR-plates (Greiner Bio-One). Cells were transfected after 24 h using jetPEI (Polyplus-transfection SA) with 0.125 μg of DNA plasmids encoding the respective receptors and equal amounts of a plasmid encoding the G protein subunit Gα16 since this subunit is needed to trigger FPR-dependent calcium signals in HEK293 cells ([50], [70]). The medium of transfected cells was changed 24 h after transfection. For mock transfections, the proportion of the FPR-containing plasmids were substituted by an empty pcDNA3.1 vector.
(§3) Cell population responses of transfected HEK293T cells and U87 cells were recorded using a Flexstation III microplate reader (Molecular Devices). Briefly, cells were incubated with 2 μM Calbryte 520 AM (AAC Bioquest) for 2 h at room temperature in C1 assay buffer with 5 mM glucose (Carl Roth). Before each experiment, cells were rinsed three times with C1. Experiments with HEK293T cells were conducted 48 h after transfection, while experiments with U87 cells were performed 24 h after seeding. Acquisition of baseline fluorescence was performed for 25 s before ligand application, and cell population response was measured for 125 s after application.

hFPR3 = test: Ca2+ imaging, HEK293T transiently transfected with hFPR3; details: Ca2+ imaging, transfected HEK293T + Gα16, Calbryte 520, C1 buffer pH 7.2; n = 3, N = 1
Description: as §1, §2, §3

hFPR1 = test: Ca2+ imaging, HEK293T transiently transfected with hFPR1; format: cell-based, human; details: n = 3, N = 1; for threshold for minimal detectable activation, hFPR1: Ca2+ imaging; for sensitivity relative to full-length Aβ1-42, hFPR1: concentration response curves
mFpr1 = test: Ca2+ imaging, HEK293T transiently transfected with mFpr1; format: cell-based, mouse; details: n = 3, N = 1; for threshold for minimal detectable activation, mFpr1: Ca2+ imaging, transfected HEK293T + Gα16, Calbryte 520, C1 buffer pH 7.2; for sensitivity relative to full-length Aβ1-42, mFpr1: concentration response curves
mFpr2 = test: Ca2+ imaging, HEK293T transiently transfected with mFpr2; format: cell-based, mouse; details: n = 3, N = 1; for threshold for minimal detectable activation, mFpr2: Ca2+ imaging, transfected HEK293T + Gα16, Calbryte 520, C1 buffer pH 7.2; for mFpr2 response concentration: concentration response curves
Description: as §1, §2, §3

human and mouse FPRs = test: Ca2+ imaging, FPR-transfected HEK293T (several human and mouse FPRs taken together); format: cell-based; details: n = 3, N = 1; for Ca2+ responses on FPRs: 5 μM
Description: as §1, §2, §3

U87 cells [1] = test: Chemotaxis assay, U87 cells; format: cell-based, human; details: IncuCyte S3, ClearView plate, 24 h, 0.5% FCS; n = 3, N = 1
Description: Cell migration assays were performed and analyzed with an IncuCyte S3 Life Cell Imaging System (EssenBio Science). […] Approximately, 1000 cells were placed into the top chamber of each well of a 96-well ClearView Plate (EssenBioscience). Chemoattractants were mixed in 200 μl medium and then placed in the corresponding bottom chambers. Image acquisition was performed hourly for 24 h on both sides of a membrane separating the top and bottom chambers. Subsequent analysis was performed using the IncuCyte S3 software.

glial cells = details: cited from earlier work
Text: In summary, our study provides a systematic overview over the capability of different mouse and human FPRs to interact with Aβ in different buffer systems. To our knowledge, we are the first to report an activation of hFPR3 by Aβ and the first to identify N-abridged Aβ fragments as activators of FPRs.

mouse and human FPR1 = test: Ca2+ imaging, HEK293T with mouse and human FPR1 taken together; format: cell-based
U87 cells [2] = test: Ca2+ imaging, U87 cells; details: n = 3, N = 1
Description: Peptides in HBSS or Tris–NaCl were dissolved in an ultrasonic bath as described above. […] The Aβ17-40 peptide used throughout the main text was purchased from Anaspec/MoBiTec and validated with Aβ17-40 peptides from Sigma-Aldrich and Synpeptide. Aβ11-40 was obtained from Peptides&Elephants. […] Tert-Boc-FLFL (tBoc2) was purchased from Bachem and dissolved in DMSO at 30 mM. f-MLFYFS (Psy-SP6) and f-MAMKKL (Sal-SP4) were obtained from VCPBIO and dissolved at 10 mM in DMSO (Psy-SP6) or at 1 mM in C1 (SP4), respectively. WKWMVm-NH2 and WKWMVm-CHO were purchased from Proteogenix and VCPBIO, respectively, and dissolved as 1 mM stock solutions in C1. fMLF was purchased from Sigma-Aldrich and also dissolved at 1 mM in C1. All peptides were thawed at room temperature approximately 1 h before each functional experiment, as this time was needed to prepare the compound plates for each measurement.
U87 MG cells (CLS) were cultured in Minimum Essential medium (Biowest) supplemented with 10% (v/v) heat-inactivated FCS (Pan Biotech), 1 unit/ml penicillin-streptomycin (Biowest), 2 mM L-glutamine (Biowest), and 1 unit/ml non-essential amino acids (Biowest) until 50 to 60% confluence. For calcium imaging and immunostaining, on average 2500 cells were seeded in each well of PDL-coated (10 μg/ml in PBS, Sigma) black optical 96-well μCLEAR-plates (Greiner Bio-One).
as §3

[3] = transfected HEK293T + Gα16, Calbryte 520, assay buffer C1 pH 7.2, Flexstation III, peptide stock 5 mM in DMSO

Substance | response of hFPRs (in addition to hFPR2) (hFPR1, hFPR2, hFPR3) | threshold for minimal detectable activation, hFPR2 (hFPR2) [µM] | threshold for minimal detectable activation, hFPR3 (hFPR3) [µM] | threshold for minimal detectable activation, hFPR1 (hFPR1; transfected HEK293T + Gα16, Calbryte 520, assay buffer C1 pH 7.2, peptide stock 30 μM in C1) [nM] | threshold for minimal detectable activation, mFpr1 (mFpr1) [nM] | threshold for minimal detectable activation, mFpr2 (mFpr2) [µM] | Ca2+ responses on FPRs (human and mouse FPRs) | migration (chemotaxis) of U87 cells (U87 cells [1]) | hFPR2 response concentration (hFPR2) | activation of glial cells (glial cells) | activation of mouse and human FPR1 (in words) (mouse and human FPR1) | threshold for minimal detectable activation, hFPR1 (hFPR1; [3]) [nM] | sensitivity relative to full-length Aβ1-42, hFPR1 (hFPR1) | sensitivity relative to full-length Aβ1-42, mFpr1 (mFpr1) | mFpr2 response concentration (mFpr2) | Ca2+ response of U87 cells (U87 cells [2]) | U87 concentration response curve compared with FPR-transfected HEK293T cells (U87 cells [2]) | susceptibility of FPR responses to manufacturer-dependent effects (human and mouse FPRs; 5 μM Aβ17-40 from Anaspec, Synpeptide, Sigma-Aldrich) | activation of human glial cells (glial cells; human glial cells)
Aβ1-40: Amyloid beta peptide, human WT sequence, from Anaspec/MoBiTec | all other hFPRs also responded | 3 | 3 | 3000 | 500 | 5 | – | – | – | – | – | – | – | – | – | – | – | – | –
Aβ11-40: N-abridged naturally occurring Aβ variant, from Peptides&Elephants | all other hFPRs also responded | 1 | 1 | – | 30 | 1 | elicited responses on all FPRs that we could previously activate with the full-length Aβ1-42 | Aβ11-40 but not Aβ17-40 evoked cell migration; also recorded: only Aβ11-40 but not Aβ17-40 induced migration; also recorded: Aβ11-40– but not Aβ17-40–induced chemotaxis of U87 cells | only responded to micromolar concentrations | shown to activate glial cells | very potent activators of mouse and human FPR1, acting at nanomolar concentrations; also recorded: drastically lower concentrations than longer peptides | 100 | more than 10 fold | more than 10 fold | only responded to micromolar concentrations | induced a strong calcium flux; also recorded: pronounced activation of U87 cells | clear correlation with the hFPR1 response; also recorded: remarkably similar to hFPR1 | – | –
Aβ17-40: N-abridged naturally occurring Aβ variant, from Anaspec, validated with Sigma-Aldrich and Synpeptide peptides (LVFFAEDVGSNKGAIIGLMVGGVV; Amyloid-beta protein 40; UniProt P05067 688-711, looked up, fragment) | all other hFPRs also responded | 1 | 1 | – | 30 | 1 | elicited responses on all FPRs that we could previously activate with the full-length Aβ1-42 | Aβ11-40 but not Aβ17-40 evoked cell migration; also recorded: only Aβ11-40 but not Aβ17-40 induced migration; also recorded: Aβ11-40– but not Aβ17-40–induced chemotaxis of U87 cells | only responded to micromolar concentrations | shown to activate glial cells | very potent activators of mouse and human FPR1, acting at nanomolar concentrations; also recorded: drastically lower concentrations than longer peptides | 100 | more than 10 fold | more than 10 fold | only responded to micromolar concentrations | induced a strong calcium flux; also recorded: pronounced activation of U87 cells | clear correlation with the hFPR1 response; also recorded: remarkably similar to hFPR1 | less susceptible to manufacturer-dependent effects than full length Aβ | –
Aβ17-43: Aβ fragment of earlier studies (LVFFAEDVGSNKGAIIGLMVGGVVIAT; Amyloid-beta protein 42; UniProt P05067 688-714, looked up, fragment) | – | – | – | – | – | – | – | – | – | – | – | – | – | – | – | – | – | – | only lead to a partial activation of human glial cells
